Test results: patent US9108926B2, “Disubstituted 5-fluoro-pyrimidines” (Bayer Intellectual Property GmbH, priority 2011, dated 2015)

Columns and labels:
[1] = tested on: HeLa cells; assay: Proliferation assay, HeLa; type: cell-based; conditions: Homo sapiens, 96 h, 4 days, crystal violet, read-out: Inhibition of HeLa cell proliferation IC50
Method: (§1) After 24 hours, the cells of one plate (zero-point plate) were stained with crystal violet (see below), while the medium of the other plates was replaced by fresh culture medium (200 μl), to which the test substances were added in various concentrations (0 μM, as well as in the range of 0.001-10 μM; the final concentration of the solvent dimethyl sulfoxide was 0.5%). The cells were incubated for 4 days in the presence of test substances. Cell proliferation was determined by staining the cells with crystal violet: the cells were fixed by adding 20 μl/measuring point of an 11% glutaric aldehyde solution for 15 minutes at room temperature. After three washing cycles of the fixed cells with water, the plates were dried at room temperature. The cells were stained by adding 100 μl/measuring point of a 0.1% crystal violet solution (pH 3.0). After three washing cycles of the stained cells with water, the plates were dried at room temperature. The dye was dissolved by adding 100 μl/measuring point of a 10% acetic acid solution. […] The change of cell number, in percent, was calculated by normalization of the measured values to the extinction values of the zero-point plate (=0%) and the extinction of the untreated (0 μm) cells (=100%).

[2] = tested on: HeLa-MaTu-ADR cells; assay: Proliferation assay, HeLa-MaTu-ADR; type: cell-based; conditions: Homo sapiens, 96 h; HeLa-MaTu-ADR, 4 days, crystal violet; read-out: Inhibition of HeLa-MaTu-ADR cell proliferation IC50
Method: as §1

[3] = tested on: NCI-H460 cells; assay: Proliferation assay, NCI-H460; type: cell-based; conditions: Homo sapiens, 96 h; NCI-H460, 4 days, crystal violet; read-out: Inhibition of NCI-H460 cell proliferation IC50
Method: as §1

[4] = tested on: DU145 cells; assay: Proliferation assay, DU145; type: cell-based; conditions: Homo sapiens, DU-145, 96 h; DU145, 4 days, crystal violet; read-out: Inhibition of DU145 cell proliferation IC50
Method: as §1

[5] = tested on: Caco-2 cells; assay: Proliferation assay, Caco-2; type: cell-based; conditions: Homo sapiens, 96 h; Caco-2, 4 days, crystal violet; read-out: Inhibition of Caco-2 cell proliferation IC50
Method: as §1

[6] = tested on: B16F10 cells; assay: Proliferation assay, B16F10; type: cell-based; conditions: Mus musculus, B16-F10, 96 h; B16F10, 4 days, crystal violet; read-out: Inhibition of B16F10 cell proliferation IC50
Method: as §1

[7] = tested on: A2780 cells; assay: Proliferation assay, A2780; type: cell-based; conditions: Homo sapiens, 96 h; A2780, 4 days, crystal violet; read-out: Inhibition of A2780 cell proliferation IC50
Method: Cultivated tumour cells (HeLa, human cervical tumour cells, ATCC CCL-2; NCI-H460, human non-small cell lung carcinoma cells, ATCC HTB-177; A2780, human ovarian carcinoma cells, ECACC #93112519; DU 145, hormone-independent human prostate carcinoma cells, ATCC HTB-81; HeLa-MaTu-ADR, multidrug-resistant human cervical carcinoma cells, EPO-GmbH Berlin; Caco-2, human colorectal carcinoma cells, ATCC HTB-37; B16F10, mouse melanoma cells, ATCC CRL-6475) were plated at a density of 5,000 cells/well (DU145, HeLa-MaTu-ADR), 3,000 cells/well (NCI-H460, HeLa), 2,500 cells/well (A2780), 1,500 cells/well (Caco-2), or 1,000 cells/well (B16F10) in a 96-well multititer plate in 200 μL of their respective growth medium supplemented 10% fetal calf serum. […] Cell proliferation was determined by staining the cells with crystal violet: the cells were fixed by adding 20 μl/measuring point of an 11% glutaric aldehyde solution for 15 minutes at room temperature. […] The extinction was determined by photometry at a wavelength of 595 nm. The change of cell number, in percent, was calculated by normalization of the measured values to the extinction values of the zero-point plate (=0%) and the extinction of the untreated (0 μm) cells (=100%).

[8] = Caco-2 permeation assay; type: in vitro ADME; conditions: human, pH 7.2, Caco-2, test compound 2 μM
Method: 4. Caco-2 Permeation Assay:
Caco-2 cells (purchased from DSMZ Braunschweig, Germany) were seeded at a density of 4.5×10^4 cells per well on 24 well insert plates, 0.4 μm pore size, and grown for 15 days in DMEM medium supplemented with 10% fetal bovine serum, 1% GlutaMAX (100×, GIBCO), 100 U/mL penicillin, 100 μg/mL streptomycin (GIBCO) and 1% non essential amino acids (100×). Cells were maintained at 37° C. in a humified 5% CO2 atmosphere. Medium was changed every 2-3 day. Before running the permeation assay, the culture medium was replaced by a FCS-free hepes-carbonate transport buffer (pH 7.2). For assessment of monolayer integrity the transepithelial electrical resistance (TEER) was measured. Test compounds were predissolved in DMSO and added either to the apical or basolateral compartment in final concentration of 2 μM in transport buffer. Before and after 2 h incubation at 37° C. samples were taken from both compartments. Analysis of compound content was done after precipitation with methanol by LC/MS/MS analysis. Permeability (Papp) was calculated in the apical to basolateral (A→B) and basolateral to apical (B→A) directions. […] The efflux ratio basolateral (B) to apical (A) was calculated by dividing the Papp B−A by the Papp A−B. In addition the compound recovery was calculated. The following reference compounds were used for the classification of the permeability class: Antipyrine, Pyrazosin, Verapamil, Fluvastatin, Cimetidine, Ranitidine, Atenolol, Sulfasalazine.

[9] = target: CDK2/CycE (Homo sapiens, UniProt P24941); assay: CDK2/CycE kinase assay (TR-FRET, Method 2)
Description: CDK2/CycE-inhibitory activity of compounds of the present invention was quantified employing the CDK2/CycE TR-FRET assay as described in the following paragraphs:
Recombinant fusion proteins of GST and human CDK2 and of GST and human CycE, expressed in insect cells (Sf9) and purified by Glutathion-Sepharose affinity chromatography, were purchased from ProQinase GmbH (Freiburg, Germany). As substrate for the kinase reaction biotinylated peptide biotin-Ttds-[sequence] (C-terminus in amid form) was used which can be purchased e.g. form the company JERINI Peptide Technologies (Berlin, Germany).
For the assay 50 nl of a 100 fold concentrated solution of the test compound in DMSO was pipetted into a black low volume 384 well microtiter plate (Greiner Bio-One, Frickenhausen, Germany), 2 μl of a solution of CDK2/CycE in aqueous assay buffer [50 mM Tris/HCl pH 8.0, 10 mM MgCl2, 1.0 mM dithiothreitol, 0.1 mM sodium ortho-vanadate, 0.01% (v/v) Nonidet-P40 (Sigma)] were added and the mixture was incubated for 15 min at 22° C. to allow pre-binding of the test compounds to the enzyme before the start of the kinase reaction. Then the kinase reaction was started by the addition of 3 μl of a solution of adenosine-tri-phosphate (ATP, 16.7 μM=>final conc. in the 5 μl assay volume is 10 μM) and substrate (1.25 μM=>final conc. in the 5 μl assay volume is 0.75 μM) in assay buffer and the resulting mixture was incubated for a reaction time of 25 min at 22° C. The concentration of CDK2/CycE was adjusted depending of the activity of the enzyme lot and was chosen appropriate to have the assay in the linear range, typical concentrations were in the range of 130 ng/mL. The reaction was stopped by the addition of 5 μl of a solution of TR-FRET detection reagents (0.2 μM streptavidine-XL665 [Cisbio Bioassays, Codolet, France] and 1 nM anti-RB(pSer807/pSer811)-antibody from BD Pharmingen [#558389] and 1.2 nM LANCE EU-W1024 labeled anti-mouse IgG antibody [Perkin-Elmer, product no. AD0077]) in an aqueous EDTA-solution (100 mM EDTA, 0.2% (w/v) bovine serum albumin in 100 mM HEPES/NaOH pH 7.0).
The resulting mixture was incubated 1 h at 22° C. to allow the formation of complex between the phosphorylated biotinylated peptide and the detection reagents. Subsequently the amount of phosphorylated substrate was evaluated by measurement of the resonance energy transfer from the Eu-chelate to the streptavidine-XL. Therefore, the fluorescence emissions at 620 nm and 665 nm after excitation at 350 nm was measured in a TR-FRET reader, e.g. a Rubystar (BMG Labtechnologies, Offenburg, Germany) or a Viewlux (Perkin-Elmer). The ratio of the emissions at 665 nm and at 622 nm was taken as the measure for the amount of phosphorylated substrate.

IC50 [1]: 110 nM
IC50 [2]: 120 nM
IC50 [3]: 360 nM
IC50 [4]: 310 nM
IC50 [5]: 380 nM
IC50 [6]: 360 nM
IC50 [7]: 110 nM
Papp A→B at 2 h, 2 μM ([8]; apical to basolateral, read-out: Papp A-B (Mari)): 9.7 ×10⁻⁶ cm/s
Papp B→A at 2 h, 2 μM ([8]; basolateral to apical, read-out: Papp B-A (Mari)): 3.1 ×10⁻⁶ cm/s
IC50 [9]: 200 nM
Structure (SMILES): COc1cc(F)ccc1-c1nc(Nc2cc(F)cc(CS(C)(=O)=O)c2)ncc1F [Example 12, 5-Fluoro-4-(4-fluoro-2-methoxyphenyl)-N-{3-fluoro-5-[(methylsulfonyl)methyl]phenyl}pyrimidin-2-amine]
